Nine molecules from ChEMBL document CHEMBL1201862, “PubChem BioAssay data set” (2004) can be followed below.

What is called AC50 is the midpoint of the concentration-response curve, whichever way the signal moves. Usually EC50 stands for the concentration that produces a half-maximal response.

Active and inactive are the calls of the source. A value given as a limit tells only on which side of the number the result lay.

The target of one assay is T1, Cytochrome P450 1A2 (Homo sapiens, UniProt P05177).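 Note: PubChem cytochrome P450 panel assay, CYP1A2 panel member.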
T1 sequence (P05177 whole entry): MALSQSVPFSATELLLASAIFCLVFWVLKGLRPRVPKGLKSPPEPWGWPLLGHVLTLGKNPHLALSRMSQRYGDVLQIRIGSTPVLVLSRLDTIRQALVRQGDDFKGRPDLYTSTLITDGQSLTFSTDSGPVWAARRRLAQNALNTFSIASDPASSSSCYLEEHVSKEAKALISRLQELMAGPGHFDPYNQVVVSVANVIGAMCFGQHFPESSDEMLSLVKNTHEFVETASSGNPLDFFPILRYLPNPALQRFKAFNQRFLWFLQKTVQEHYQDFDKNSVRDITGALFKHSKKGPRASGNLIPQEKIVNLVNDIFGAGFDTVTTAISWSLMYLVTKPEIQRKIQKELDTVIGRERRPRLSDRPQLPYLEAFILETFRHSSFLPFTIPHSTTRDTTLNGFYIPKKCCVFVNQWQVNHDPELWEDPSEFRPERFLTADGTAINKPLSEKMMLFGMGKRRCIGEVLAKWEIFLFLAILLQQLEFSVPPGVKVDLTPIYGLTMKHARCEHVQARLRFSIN

For another assay, the target named is T2, Leucine aminopeptidase (Plasmodium falciparum 3D7, UniProt Q8IL11).
T2 sequence (Q8IL11 whole entry): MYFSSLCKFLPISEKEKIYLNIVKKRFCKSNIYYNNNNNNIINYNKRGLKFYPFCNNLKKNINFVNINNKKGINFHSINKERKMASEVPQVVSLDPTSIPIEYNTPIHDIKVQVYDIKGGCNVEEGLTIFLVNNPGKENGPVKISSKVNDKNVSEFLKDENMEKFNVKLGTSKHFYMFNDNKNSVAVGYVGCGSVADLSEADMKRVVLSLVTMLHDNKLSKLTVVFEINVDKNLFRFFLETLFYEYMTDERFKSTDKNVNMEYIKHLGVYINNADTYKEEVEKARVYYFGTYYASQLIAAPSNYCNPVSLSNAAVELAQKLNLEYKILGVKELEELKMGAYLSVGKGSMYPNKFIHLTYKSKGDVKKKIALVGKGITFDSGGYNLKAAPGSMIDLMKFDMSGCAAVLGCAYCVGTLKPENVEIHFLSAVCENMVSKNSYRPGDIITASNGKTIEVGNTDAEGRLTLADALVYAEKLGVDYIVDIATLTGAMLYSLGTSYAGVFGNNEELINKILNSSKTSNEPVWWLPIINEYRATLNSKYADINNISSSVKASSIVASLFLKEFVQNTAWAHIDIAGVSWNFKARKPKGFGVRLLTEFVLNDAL
Description: P. falciparum M17LAP inhibitors, primary screen, biochemical, fluorogenic H-Leu-NHMec substrate, 1536-well (AID 1619). It is filed as functional.

A further assay has as its target Cytochrome P450 2C19 (Homo sapiens, UniProt P33261). Briefly: Cytochrome panel assay with activity outcomes. Panel member name: p450-cyp2c19 Compounds with AC50 equal or less than 10 uM are considered active. It is filed as functional. The note with it: read-out: AC50.
The target in a further assay is Cytochrome P450 2C9 (Homo sapiens, UniProt P11712).
Chain of Cytochrome P450 2C9 (P11712 whole entry): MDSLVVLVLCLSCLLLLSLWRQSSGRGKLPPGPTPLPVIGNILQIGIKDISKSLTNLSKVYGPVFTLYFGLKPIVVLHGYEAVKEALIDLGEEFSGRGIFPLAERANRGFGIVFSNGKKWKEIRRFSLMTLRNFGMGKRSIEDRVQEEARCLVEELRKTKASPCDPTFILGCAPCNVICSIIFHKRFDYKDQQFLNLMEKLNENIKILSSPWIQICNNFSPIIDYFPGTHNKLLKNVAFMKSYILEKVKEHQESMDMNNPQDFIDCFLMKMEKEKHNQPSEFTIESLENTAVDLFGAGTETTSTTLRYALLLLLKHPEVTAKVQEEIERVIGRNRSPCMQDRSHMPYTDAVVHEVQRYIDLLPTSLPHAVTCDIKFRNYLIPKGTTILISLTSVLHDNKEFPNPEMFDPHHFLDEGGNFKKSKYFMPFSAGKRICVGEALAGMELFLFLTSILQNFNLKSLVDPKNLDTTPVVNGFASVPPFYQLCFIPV
Assay [1] deals with T3, DNA repair protein RAD52 homolog (Homo sapiens, UniProt P43351).
T3 sequence (P43351 whole entry): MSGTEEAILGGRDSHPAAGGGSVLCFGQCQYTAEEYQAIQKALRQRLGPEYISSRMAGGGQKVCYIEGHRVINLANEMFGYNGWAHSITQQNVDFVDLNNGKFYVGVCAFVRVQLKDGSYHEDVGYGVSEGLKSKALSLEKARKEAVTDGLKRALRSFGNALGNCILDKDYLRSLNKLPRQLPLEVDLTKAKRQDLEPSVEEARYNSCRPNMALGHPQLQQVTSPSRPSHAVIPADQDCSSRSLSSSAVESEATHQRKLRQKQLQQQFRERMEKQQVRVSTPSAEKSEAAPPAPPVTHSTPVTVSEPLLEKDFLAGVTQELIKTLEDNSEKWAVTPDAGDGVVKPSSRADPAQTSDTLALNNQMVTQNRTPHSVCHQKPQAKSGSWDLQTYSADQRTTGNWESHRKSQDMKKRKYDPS
It is filed as functional, biochemical.

Assay [2] has as its target 5-hydroxytryptamine receptor 5A (Homo sapiens, UniProt P47898). Briefly: Counterscreen for agonists of OPRM1-OPRD1 heterodimerization: luminescence-based cell-based high throughput dose response assay to identify agonists of 5-hydroxytryptamine (serotonin) 5A receptor (HTR5A). [Related pubchem assays (depositor defined):AID504326, AID504355, AID504692, AID504904, AID504905]. It is filed as functional. Background: Counterscreens check selectivity or assay interference.

Assay [3] concerns the target Delta-type opioid receptor (Homo sapiens, UniProt P41143). Description: Counterscreen for agonists of heterodimerization of the mu 1 (OPRM1) and delta 1 (OPRD1) opioid receptors: Luminescence-based cell-based high throughput dose response assay to identify agonists of OPRD1 homodimerization. [Related pubchem assays (depositor defined):AID504326, AID504355, AID504692, AID504904, AID504905]. In kind it is functional.

Assay [4] addresses T4, Short transient receptor potential channel 4 (Mus musculus, UniProt Q9QUQ5).
T4 sequence (Q9QUQ5 whole entry): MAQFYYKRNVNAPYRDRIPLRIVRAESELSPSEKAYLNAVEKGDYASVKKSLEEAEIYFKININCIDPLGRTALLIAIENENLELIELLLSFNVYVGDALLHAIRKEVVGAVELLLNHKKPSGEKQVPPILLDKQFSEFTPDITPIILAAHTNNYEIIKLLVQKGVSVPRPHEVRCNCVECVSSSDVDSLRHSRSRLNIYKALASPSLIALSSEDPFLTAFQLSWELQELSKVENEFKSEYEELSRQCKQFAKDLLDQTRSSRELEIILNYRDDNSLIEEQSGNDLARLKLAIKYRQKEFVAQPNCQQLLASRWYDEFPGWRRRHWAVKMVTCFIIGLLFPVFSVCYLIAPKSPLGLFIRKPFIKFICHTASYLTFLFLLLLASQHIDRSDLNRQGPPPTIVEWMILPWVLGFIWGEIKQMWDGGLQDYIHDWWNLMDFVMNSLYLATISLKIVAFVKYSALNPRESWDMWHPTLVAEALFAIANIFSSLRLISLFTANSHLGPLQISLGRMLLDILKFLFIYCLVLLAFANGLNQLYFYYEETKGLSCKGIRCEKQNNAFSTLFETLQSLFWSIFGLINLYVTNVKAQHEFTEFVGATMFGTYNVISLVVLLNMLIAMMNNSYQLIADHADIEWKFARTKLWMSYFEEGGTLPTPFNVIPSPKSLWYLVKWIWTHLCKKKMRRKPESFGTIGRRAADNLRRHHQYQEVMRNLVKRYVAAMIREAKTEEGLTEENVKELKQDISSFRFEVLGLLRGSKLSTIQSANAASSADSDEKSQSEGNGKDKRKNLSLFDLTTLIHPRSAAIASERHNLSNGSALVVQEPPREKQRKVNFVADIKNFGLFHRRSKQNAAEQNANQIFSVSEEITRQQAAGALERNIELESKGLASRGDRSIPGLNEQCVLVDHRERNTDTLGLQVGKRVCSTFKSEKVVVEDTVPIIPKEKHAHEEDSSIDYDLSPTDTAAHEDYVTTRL
Description: calcium entry via TRPC4 opening agents – cell-based, HEK293 TRPC4/mu-opioid, Fluo-4 calcium, dose response (AID 434937). In kind it is functional.

A further assay concerns the target Mu-type opioid receptor (Homo sapiens, UniProt P35372). Description: Counterscreen for agonists of heterodimerization of the mu 1 (OPRM1) and delta 1 (OPRD1) opioid receptors: Luminescence-based cell-based high throughput dose response assay to identify agonists of OPRM1 homodimerization. It is filed as functional.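 Note: U2OS cells expressing OPRM1 and beta-arrestin as split beta-galactosidase partners.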
For assay [5], the target named is Alkaline phosphatase, placental type (Homo sapiens, UniProt P05187). Briefly: human placental alkaline phosphatase inhibition – biochemical, luminescence, confirmation (AID 1512). It is filed as functional.
Chain of Alkaline phosphatase, placental type (P05187 whole entry): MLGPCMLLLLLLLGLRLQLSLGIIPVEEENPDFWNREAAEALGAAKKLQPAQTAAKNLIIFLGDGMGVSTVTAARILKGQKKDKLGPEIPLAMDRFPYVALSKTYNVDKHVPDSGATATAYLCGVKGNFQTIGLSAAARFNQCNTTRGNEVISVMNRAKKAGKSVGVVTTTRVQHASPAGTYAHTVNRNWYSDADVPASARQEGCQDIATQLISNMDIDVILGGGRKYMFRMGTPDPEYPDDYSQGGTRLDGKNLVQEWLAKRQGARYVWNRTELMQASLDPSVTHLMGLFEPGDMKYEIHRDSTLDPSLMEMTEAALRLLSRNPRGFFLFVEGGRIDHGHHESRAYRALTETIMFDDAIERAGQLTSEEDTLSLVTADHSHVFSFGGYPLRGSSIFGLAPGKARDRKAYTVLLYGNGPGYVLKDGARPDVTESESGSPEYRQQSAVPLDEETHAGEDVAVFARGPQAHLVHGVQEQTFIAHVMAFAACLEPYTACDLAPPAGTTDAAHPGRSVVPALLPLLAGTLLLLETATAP
The target in the next assay is Paired box protein Pax-8 (Homo sapiens, UniProt Q06710). Briefly: PAX8 transcriptional activity inhibition in RMG-I – RMG-I cells, luciferase, cherry-pick, dose response (AID 687027).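 Note: luciferase reporter driven by Pax8 target thyroperoxidase promoter measured by SteadyGlo luminescence.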 It is filed as functional, cell-based.
Chain of Paired box protein Pax-8 (Q06710 whole entry): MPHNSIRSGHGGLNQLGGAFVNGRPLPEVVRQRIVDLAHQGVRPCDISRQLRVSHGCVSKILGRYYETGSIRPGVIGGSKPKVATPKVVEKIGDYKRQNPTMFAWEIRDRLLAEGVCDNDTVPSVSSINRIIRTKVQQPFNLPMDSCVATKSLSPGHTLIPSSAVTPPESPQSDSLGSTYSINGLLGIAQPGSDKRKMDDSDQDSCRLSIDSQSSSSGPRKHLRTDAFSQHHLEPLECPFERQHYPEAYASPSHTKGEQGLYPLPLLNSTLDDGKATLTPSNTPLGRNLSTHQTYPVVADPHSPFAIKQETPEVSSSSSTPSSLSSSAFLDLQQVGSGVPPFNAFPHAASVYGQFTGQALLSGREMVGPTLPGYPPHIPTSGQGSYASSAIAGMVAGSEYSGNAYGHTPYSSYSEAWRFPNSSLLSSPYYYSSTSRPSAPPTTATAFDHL
Assay [6] can be described thus: IGROV1 cell killing – plate reader, dry powder samples, PAX8 inhibitor project, dose response (AID 743043). It is filed as functional, cell-based. The note with it: IGROV-1.
Assay [7] concerns the target T5, Probable nicotinate-nucleotide adenylyltransferase (Staphylococcus aureus (strain N315), UniProt P65502). It is filed as functional, Staphylococcus aureus subsp. aureus N315. The following applies: read-out: IC50_Mean.
The target in assay [8] is T5, Probable nicotinate-nucleotide adenylyltransferase. It is filed as functional, Staphylococcus aureus subsp. aureus N315.
Assay [9] concerns the target T6, Carboxy-terminal domain RNA polymerase II polypeptide A small phosphatase 1 (Homo sapiens, UniProt Q9GZU7).
T6 sequence (Q9GZU7 whole entry): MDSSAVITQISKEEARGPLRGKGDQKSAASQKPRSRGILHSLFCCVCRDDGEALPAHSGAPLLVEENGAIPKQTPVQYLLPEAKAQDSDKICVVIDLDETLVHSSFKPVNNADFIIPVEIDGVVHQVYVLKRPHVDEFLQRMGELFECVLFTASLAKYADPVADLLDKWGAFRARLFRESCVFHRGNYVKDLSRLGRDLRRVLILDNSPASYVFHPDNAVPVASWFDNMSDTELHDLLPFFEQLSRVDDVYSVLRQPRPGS
Briefly: CTDSP1 inhibitors, concentration-response, biochemical, absorbance readout, ultra-high-throughput screen actives (AID 540297). It is filed as functional.
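Throughout, for IC50 Mean: confirmatory dose-response retesting of NadD inhibitor hits first found in an ultra-high-throughput screen.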

T5 sequence (P65502 whole entry): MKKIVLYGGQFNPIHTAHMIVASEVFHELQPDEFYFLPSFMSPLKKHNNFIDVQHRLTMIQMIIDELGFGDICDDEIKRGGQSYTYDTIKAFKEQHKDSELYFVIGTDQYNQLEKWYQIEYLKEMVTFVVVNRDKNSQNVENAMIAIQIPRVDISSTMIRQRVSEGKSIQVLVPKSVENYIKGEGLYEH
Chain of Delta-type opioid receptor (P41143 whole entry): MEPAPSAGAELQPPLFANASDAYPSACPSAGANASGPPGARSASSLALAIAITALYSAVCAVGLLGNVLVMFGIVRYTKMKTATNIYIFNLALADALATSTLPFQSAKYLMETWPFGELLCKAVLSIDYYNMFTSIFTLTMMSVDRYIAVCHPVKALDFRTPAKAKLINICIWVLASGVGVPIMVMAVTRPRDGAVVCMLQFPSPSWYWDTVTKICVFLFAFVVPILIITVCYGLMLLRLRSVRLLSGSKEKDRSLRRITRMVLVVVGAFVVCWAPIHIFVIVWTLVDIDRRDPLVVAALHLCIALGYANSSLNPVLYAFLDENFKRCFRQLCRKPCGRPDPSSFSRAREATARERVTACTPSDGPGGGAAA
Chain of 5-hydroxytryptamine receptor 5A (P47898 whole entry): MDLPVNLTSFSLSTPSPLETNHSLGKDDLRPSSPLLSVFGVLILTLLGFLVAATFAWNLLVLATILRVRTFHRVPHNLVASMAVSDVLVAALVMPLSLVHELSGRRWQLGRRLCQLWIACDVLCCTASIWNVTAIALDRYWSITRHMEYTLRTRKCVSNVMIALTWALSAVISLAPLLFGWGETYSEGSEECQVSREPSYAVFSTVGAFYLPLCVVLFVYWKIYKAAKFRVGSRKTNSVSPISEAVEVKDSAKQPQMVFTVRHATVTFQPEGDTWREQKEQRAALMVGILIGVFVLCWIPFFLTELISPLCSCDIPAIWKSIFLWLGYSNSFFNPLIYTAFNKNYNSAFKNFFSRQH
Chain of Cytochrome P450 2C19 (P33261 whole entry): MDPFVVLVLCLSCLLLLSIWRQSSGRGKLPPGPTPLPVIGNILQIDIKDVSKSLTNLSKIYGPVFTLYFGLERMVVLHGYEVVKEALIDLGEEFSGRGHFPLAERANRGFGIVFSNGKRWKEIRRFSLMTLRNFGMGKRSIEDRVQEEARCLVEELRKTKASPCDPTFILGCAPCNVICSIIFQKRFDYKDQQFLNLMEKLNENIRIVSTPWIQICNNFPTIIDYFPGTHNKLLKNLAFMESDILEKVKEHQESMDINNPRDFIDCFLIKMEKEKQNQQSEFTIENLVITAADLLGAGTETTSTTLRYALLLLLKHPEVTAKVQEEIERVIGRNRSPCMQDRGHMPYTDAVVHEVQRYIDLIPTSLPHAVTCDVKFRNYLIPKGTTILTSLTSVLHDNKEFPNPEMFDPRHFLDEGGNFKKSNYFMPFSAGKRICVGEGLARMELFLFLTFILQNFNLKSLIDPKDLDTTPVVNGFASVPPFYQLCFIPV
Chain of Mu-type opioid receptor (P35372 whole entry): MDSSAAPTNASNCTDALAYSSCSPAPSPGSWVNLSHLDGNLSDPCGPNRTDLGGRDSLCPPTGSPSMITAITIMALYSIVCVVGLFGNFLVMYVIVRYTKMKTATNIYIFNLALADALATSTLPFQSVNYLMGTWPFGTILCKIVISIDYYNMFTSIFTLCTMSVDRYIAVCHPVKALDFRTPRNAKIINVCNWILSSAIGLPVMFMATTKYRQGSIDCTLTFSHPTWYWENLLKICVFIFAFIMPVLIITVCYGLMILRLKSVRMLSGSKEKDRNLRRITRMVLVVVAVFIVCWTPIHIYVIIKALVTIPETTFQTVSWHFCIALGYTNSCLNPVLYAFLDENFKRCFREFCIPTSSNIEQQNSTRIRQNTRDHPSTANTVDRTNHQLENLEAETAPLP

For `Cc1ccc(N(CC(N)=O)C2SC(=O)N(Cc3cccc(C(=O)O)c3)C2=O)cc1` (centres undefined), the AC50 was 15.8 µM (inconclusive) at Cytochrome P450 1A2, 20 µM (inconclusive) at Cytochrome P450 2C19 and 12.6 µM (inconclusive) on Cytochrome P450 2C9. Besides, the IC50 at Leucine aminopeptidase is 40.7 µM (active).
For `Cc1cc(C(=O)COC(=O)c2ccc[nH]c2=O)c(C)n1CCc1ccc(F)cc1`, the IC50 at Leucine aminopeptidase was 18.2 µM (active).
In the case of `CC1CN(C)C(C)c2c1oc1ccc(N)cc21` (centres undefined), the concentration at half-maximal activity (AC50) in assay [1] is 9.06 µM (active). For the same molecule, the EC50 in [2] is > 92.5 µM (inactive); in assay [3], > 92.5 µM (inactive); in assay [4] it was 0.841 µM (active); at Mu-type opioid receptor it was > 92.5 µM (inactive).
Consider `CCOc1ccc(NC(=O)CSc2nnc(N)s2)c([N+](=O)[O-])c1`, for which the IC50 at Leucine aminopeptidase was 2.52 µM (active).
With `CCOC(=O)C(CSCC(=O)c1ccc(Br)cc1)NC(=O)OC(C)(C)C` (centres undefined), on Leucine aminopeptidase, the IC50 is 62.2 µM (active).
For `Cc1ccc(-n2ncc3c(NNC(=O)c4ccco4)ncnc32)c(C)c1`, in assay [5], the IC50 is > 100 µM (inactive).
Consider `C[C@@H]1ON(C)[C@H]2C[C@H]3c4cc(-c5cc6ccccc6o5)ccc4CCN3C[C@@H]12`, for which the half-maximal activity concentration (AC50) in [1] was 28.7 µM (active).
As to `C[C@H](CO)N1C[C@H](C)[C@H](CN(C)S(=O)(=O)c2ccc(F)cc2)OCCCC[C@H](C)Oc2ccc(NS(=O)(=O)c3ccc(Cl)cc3)cc2C1=O`, the figures for the AC50 (on Paired box protein Pax-8; in assay [6]) were 10.1 µM (active) and 54.7 µM (active), respectively.
Turning to `O=C(O)Cc1sc(N/N=C\c2ccccc2)nc1-c1ccccc1`, the IC50 is 27.7 µM (active) in [7], 9.86 µM (active) in [8] and 5.14 µM (active) in assay [9].
